What was measured:
S. pneumoniae SP_22257 = test: checkerboard combination, clinical bacterial isolates (FIC); assay type: cell-based; settings: compound G with Azithromycin; S. pneumoniae SP_22257 (PenR EryS ClinS)
Procedure: (§1) The combination experiments were performed and the results were interpreted using the checkerboard method as described in Eliopoulous, G. M., and R. C. Moellering, 1996, Antimicrobial combinations, p. 330-396, In V. Lorian (ed.), Antibiotics in laboratory medicine, 4th ed., The Williams & Wilkins Co., Baltimore, Md., in 96-well microtiter plates. Compound A was serially diluted along the x-axis of the test plate to a final volume of 50 μl, and compound B was serially diluted in a separate transfer plate. Dilutions in both plates were made in CAMHB (cation-adjusted Mueller Hinton broth) for Staphylococci and in CAMHB+5% sheep blood for Streptococci. Aliquots (50 μl) of Compound B were transferred to the test plate along the y-axis thereby achieving a checkerboard matrix of antimicrobial combinations (100 μl total volume) as in FIG. 4. The first column and last row (shaded in FIG. 4) contained only compound B or compound A, respectively. Plates were then inoculated with 10 μl of the test microorganism and MICs were determined according to NCCLS guidelines (see National Committee for Clinical Laboratory Standards, 2000, Methods for Dilution Antimicrobial Susceptibility Tests for Bacteria That Grow Aerobically—Fifth Edition, Approved Standard M7-A5, NCCLS, Wayne, Pa., USA.)
(§2) Data analysis was performed as follows and according to Eliopoulous, G. M., and R. C. Moellering, 1996, Antimicrobial combinations, p. 330-396, In V. Lorian (ed.), Antibiotics in laboratory medicine, 4th ed., The Williams & Wilkins Co., Baltimore, Md. First individual FIC values for each combination in a plate were calculated: FIC(Fractional Inhibitory Concentration)=FICA+FICB • FICA=MICA+B/MICA i.e. the MIC of combination of compound A+compound B divided by the MIC of compound A alone. • FICB=MICB+A/MICB i.e. the MIC of combination of compound B+compound A divided by the MIC of compound B alone.
(§3) FIC values were calculated only for combinations that enabled determination of a true MIC (e.g. not > or <=values). FIC indexes were then calculated as the average of individual FIC values for each combination plate.

H. influenzae HI_49247 = test: as above; assay type: cell-based; settings: compound G with Azithromycin
Procedure: as §1, §2, §3

S. aureus SA_A7080336 = test: as above; assay type: cell-based; settings: S. aureus SA_A7080336 (MRSA)
Procedure: as §1, §2, §3

S. pyogenes SPY_20061 = test: as above; assay type: cell-based; settings: S. pyogenes SPY_20061 (EryS)
Procedure: as §1, §2, §3

P. aeruginosa PA_27853 = test: as above; assay type: cell-based
Procedure: as §1, §2, §3

S. aureus SA_A6250596 = test: as above; assay type: cell-based; settings: S. aureus SA_A6250596 (MRSA-MDR)
Procedure: as §1, §2, §3

S. aureus SA_29213 = test: as above; assay type: cell-based; settings: S. aureus SA_29213 (MSSA)
Procedure: as §1, §2, §3

S. pyogenes SPY_20015 = test: as above; assay type: cell-based; settings: compound G with Gatifloxacin
Procedure: as §1, §2, §3

E. faecalis EF_A6221420 = test: as above; assay type: cell-based; settings: E. faecalis EF_A6221420 (VRE)
Procedure: as §1, §2, §3

S. mitis SMI_116 = test: as above; assay type: cell-based
Procedure: as §1, §2, §3

[1] = tested on: S. epidermidis SE_A7100750; test: as above; assay type: cell-based; settings: S. epidermidis SE_A7100750 (MRSE CipR)
Procedure: as §1, §2, §3

S. pneumoniae SP_22425 = test: as above; assay type: cell-based; settings: S. pneumoniae SP_22425 (PenR EryR ClinR)
Procedure: as §1, §2, §3

E. coli EC_25922 = test: as above; assay type: cell-based
Procedure: as §1, §2, §3

S. aureus 43300 = test: checkerboard combination study (FIC index); assay type: cell-based, Staphylococcus aureus; set-up: key: FIC index = average of FICA+FICB (MIC combo/MIC alone); settings: S. aureus 43300 (MRSA)
Procedure: as §1, §2, §3

S. aureus 29213 = test: checkerboard combination study (FIC index); assay type: cell-based, Staphylococcus aureus; set-up: key: FIC index = average of FICA+FICB (MIC combo/MIC alone)
Procedure: as §1, §2, §3

Molecule Cc1c(CN(C)C(=O)/C=C/c2cnc3c(c2)CCC(=O)N3)oc2ccccc12 [Compound G, (E)-N-methyl-N-(3-methylbenzofuran-2-ylmethyl)-3-(7-oxo-5,6,7,8-tetrahydro-1,8-naphthyridin-3-yl)acrylamide] has an FIC (S. pneumoniae SP_22257) of less than 2, an FIC (H. influenzae HI_49247) of less than 2 and an FIC (S. aureus SA_A7080336; compound G with Gatifloxacin) of 0.6. For the same molecule, the FIC (S. aureus SA_A7080336; compound G with Levofloxacin) was 0.6, the FIC (S. pyogenes SPY_20061; compound G with Ceftriaxone) was less than 2 and the FIC (S. pyogenes SPY_20061; compound G with Gatifloxacin) was less than 2. The FIC (P. aeruginosa PA_27853; compound G with Gatifloxacin) was less than 2, the FIC (P. aeruginosa PA_27853; compound G with Meropenem) was less than 2 and the FIC (S. aureus SA_A6250596; compound G with Azithromycin) was less than 2. For the same molecule, the FIC (S. aureus SA_A6250596; compound G with Ceftriaxone) was less than 2, the FIC (S. aureus SA_A6250596; compound G with Cefuroxime) was less than 2 and the FIC (S. aureus SA_A6250596; compound G with Gatifloxacin) was 1. The FIC (S. aureus SA_A6250596; compound G with Levofloxacin) was 1, the FIC (S. aureus SA_A6250596; compound G with Meropenem) was less than 2 and the FIC (S. aureus SA_A6250596; compound G with Penicillin) was less than 2. It also gave an FIC (S. aureus SA_29213; compound G with Azithromycin) of 0.6, an FIC (S. aureus SA_29213; compound G with Ceftriaxone) of less than 2 and an FIC (S. aureus SA_29213; compound G with Cefuroxime) of less than 2. It also gave an FIC (S. aureus SA_29213; compound G with Meropenem) of 1, an FIC (S. aureus SA_29213; compound G with Penicillin) of 0.7 and an FIC (S. pyogenes SPY_20015) of less than 2. For the same molecule, the FIC (E. faecalis EF_A6221420; compound G with Ceftriaxone) was less than 2, the FIC (E. faecalis EF_A6221420; compound G with Gatifloxacin) was less than 2 and the FIC (E. faecalis EF_A6221420; compound G with Levofloxacin) was less than 2. It also gave an FIC (E. faecalis EF_A6221420; compound G with Meropenem) of less than 2, an FIC (S. mitis SMI_116; compound G with Ceftriaxone) of less than 2 and an FIC (S. mitis SMI_116; compound G with Gatifloxacin) of less than 2. It also gave an FIC (S. mitis SMI_116; compound G with Meropenem) of less than 2, an FIC (S. mitis SMI_116; compound G with Penicillin) of less than 2 and an FIC ([1]; compound G with Ceftriaxone) of 1. For the same molecule, the FIC ([1]; compound G with Gatifloxacin) was less than 2, the FIC ([1]; compound G with Meropenem) was 0.6 and the FIC (S. pneumoniae SP_22425; compound G with Ceftriaxone) was less than 2. The FIC (S. pneumoniae SP_22425; compound G with Cefuroxime) was less than 2, the FIC (S. pneumoniae SP_22425; compound G with Gatifloxacin) was less than 2 and the FIC (S. pneumoniae SP_22425; compound G with Levofloxacin) was less than 2. For the same molecule, the FIC (S. pneumoniae SP_22425; compound G with Meropenem) was less than 2, the FIC (E. coli EC_25922; compound G with Ceftriaxone) was 0.7 and the FIC (E. coli EC_25922; compound G with Gatifloxacin) was less than 2. For the same molecule, the FIC (E. coli EC_25922; compound G with Meropenem) was 0.6, the “FIC Index” value (S. aureus 43300; with Cefuroxime) was 0.5 and the “FIC Index” value (S. aureus 43300; with Cloxacillin) was 0.75. For the same molecule, the “FIC Index” value (S. aureus 43300; with Gentamcin) was 0.4, the “FIC Index” value (S. aureus 43300; with Levofloxacin) was 2 and the “FIC Index” value (S. aureus 43300; with Linezolid) was 0.5. For the same molecule, the “FIC Index” value (S. aureus 43300; with Nafcillin) was 0.7, the “FIC Index” value (S. aureus 43300; with Rifampicin) was 0.75 and the “FIC Index” value (S. aureus 43300; with Tetracycline) was 1. The “FIC Index” value (S. aureus 43300; with Vancomycin) was 0.75, the “FIC Index” value (S. aureus 29213; with Cefuroxime) was 0.8 and the “FIC Index” value (S. aureus 29213; with Cloxacillin) was 2. For the same molecule, the “FIC Index” value (S. aureus 29213; with Erythromycin) was 2, the “FIC Index” value (S. aureus 29213; with Gentamcin) was 0.3 and the “FIC Index” value (S. aureus 29213; with Levofloxacin) was 1. The “FIC Index” value (S. aureus 29213; with Linezolid) was 0.5, the “FIC Index” value (S. aureus 29213; with Nafcillin) was 0.8 and the “FIC Index” value (S. aureus 29213; with Rifampicin) was 0.8. The “FIC Index” value (S. aureus 29213; with Tetracycline) was 2 and the “FIC Index” value (S. aureus 29213; with Vancomycin) was 1.
